# Tested on: hepatocytes
# Assay: Seq-Well scRNA-Seq of hepatocytes after APAP overdose (signature scores, DEG vs untreated)
# Format: in vivo, mouse
# Conditions: A6 vs UT
compound,measurement,value
"CC(=O)Nc1ccc(O)cc1 [APAP, acetaminophen]",Gstz1 pct.1,0.73
same,Gtf2a2 A6logFC,0.2792
same,Gtf2a2 avg_logFC,0.2792
same,Gtf2a2 pct.1,0.379
same,Gtpbp4 avg_logFC,0.4822
same,Gtpbp4 pct.1,0.477
same,Gulo avg_logFC,−0.8017
same,H2-Ab1 avg_logFC,0.461
same,H2-Ab1 pct.1,0.158
same,H2-D1 A6logFC,0.2865
same,H2-D1 avg_logFC,0.2865
same,H2-D1 pct.1,0.766
same,H2-Eb1 avg_logFC,0.3279
same,H2-Eb1 pct.1,0.105
same,H3f3b avg_logFC,0.7029
same,H6pd avg_logFC,0.3437
same,H6pd pct.1,0.623
same,Haao avg_logFC,−0.5912
same,Hacl1 avg_logFC,−0.7069
same,Hagh avg_logFC,−0.674
same,Hba-a1 avg_logFC,0.735
same,Hba-a2 avg_logFC,0.5535
same,Hbb-bs avg_logFC,2.862
same,Hbb-bt avg_logFC,1.43
same,Hdac11 avg_logFC,−0.3368
same,Hdac11 pct.1,0.1
same,Hdlbp avg_logFC,0.3457
same,Hdlbp pct.1,0.737
same,Heatr1 avg_logFC,0.406
same,Heatr1 pct.1,0.291
same,Hebp1 avg_logFC,−0.6354
same,Hectd1 A6logFC,0.308
same,Hectd1 avg_logFC,0.308
same,Hectd1 pct.1,0.547
same,Herc1 A6logFC,0.2562
same,Herc1 avg_logFC,0.2562
same,Herc1 pct.1,0.246
same,Herc4 A6logFC,0.2675
same,Herc4 avg_logFC,0.2675
same,Herc4 pct.1,0.332
same,Herpud1 avg_logFC,−0.4976
same,Herpud1 pct.1,0.535
same,Hes6 avg_logFC,−0.5613
same,Hgd avg_logFC,−0.7586
same,Hibadh avg_logFC,−0.4994
same,Hibadh pct.1,0.542
same,Hic2 avg_logFC,0.2898
same,Hic2 pct.1,0.15
same,Hif1a avg_logFC,0.5169
same,Hilpda avg_logFC,0.7786
same,Hint1 avg_logFC,−0.6739
same,Hint2 avg_logFC,−0.4243
same,Hint2 pct.1,0.425
same,Hipk1 A6logFC,0.2916
same,Hipk1 avg_logFC,0.2916
same,Hipk1 pct.1,0.337
same,Hmgcr A6logFC,0.4167
same,Hmgcr avg_logFC,0.4167
same,Hmgcr pct.1,0.425
same,Hmox1 avg_logFC,1.348
same,Hnf4a avg_logFC,0.8791
same,Hnrnpdl avg_logFC,0.398
same,Hnrnpdl pct.1,0.406
same,Hnrnpu A6logFC,0.3394
same,Hnrnpu avg_logFC,0.3394
same,Hnrnpu pct.1,0.625
same,Hpd avg_logFC,−0.5182
same,Hpgd avg_logFC,−0.3878
same,Hpgd pct.1,0.115
same,Hpn A6logFC,−0.2686
same,Hpn avg_logFC,−0.2686
same,Hpn pct.1,0.406
same,Hpx avg_logFC,−0.3033
same,Hpx pct.1,0.988
same,Hsbp1 A6logFC,−0.2867
same,Hsd3b5 avg_logFC,−1.07
same,Hsd17b13 avg_logFC,0.6808
same,Hsp90ab1 avg_logFC,0.3227
same,Hsp90ab1 pct.1,0.916
same,Hspb8 avg_logFC,0.6339
same,Iah1 A6logFC,−0.293
same,Iah1 avg_logFC,−0.293
same,Iah1 pct.1,0.446
same,Ier5 avg_logFC,0.289
same,Ier5 pct.1,0.134
same,Ifitm3 avg_logFC,−0.4251
same,Ifitm3 pct.1,0.587
same,Igfbp2 avg_logFC,−0.299
same,Igfbp2 pct.1,0.68
same,Iigp1 avg_logFC,0.7688
same,Il1b avg_logFC,0.7429
same,Il1r1 avg_logFC,1.245
same,Il4ra avg_logFC,0.2574
same,Il4ra pct.1,0.248
same,Il6st avg_logFC,0.3168
same,Il6st pct.1,0.411
same,Il13ra1 avg_logFC,0.2785
same,Il13ra1 pct.1,0.294
same,Impad1 A6logFC,0.3227
same,Impad1 avg_logFC,0.3227
same,Impad1 pct.1,0.391
same,Insig2 avg_logFC,0.67
same,Iqgap1 avg_logFC,0.4554
same,Iqgap1 pct.1,0.162
same,Itgb2 avg_logFC,0.2723
same,Itgb2 pct.1,0.105
same,Itih2 avg_logFC,0.5011
same,Ivns1abp A6logFC,0.3566
same,Jak1 avg_logFC,0.6039
same,Jmjd1c avg_logFC,0.6366
same,Kctd3 avg_logFC,0.2608
same,Kctd3 pct.1,0.239
same,Kdelr2 A6logFC,0.3977
same,Kdelr2 avg_logFC,0.3977
same,Kdelr2 pct.1,0.484
same,Kdm5a A6logFC,0.3514
same,Kdm5a avg_logFC,0.3514
same,Kdm5a pct.1,0.308
same,Khk avg_logFC,−0.4915
same,Khk pct.1,0.702
same,Kif1b avg_logFC,0.3718
same,Kif1b pct.1,0.527
same,Kif5b avg_logFC,0.5012
same,Kif5b pct.1,0.494
same,Kif21a A6logFC,0.4042
same,Klf3 A6logFC,0.2674
same,Klf3 avg_logFC,0.2674
same,Klf3 pct.1,0.301
same,Klf6 avg_logFC,0.7324
same,Klf15 avg_logFC,−0.4518
same,Klf15 pct.1,0.208
same,Kmo avg_logFC,−0.3844
same,Kmo pct.1,0.487
same,Krt8 avg_logFC,1.196
same,Krt18 avg_logFC,1.258
same,Lactb2 avg_logFC,−0.5965
same,Laptm5 avg_logFC,0.3382
same,Laptm5 pct.1,0.124
same,Lars2 avg_logFC,1.392
same,Lcn2 avg_logFC,0.4122
same,Lcn2 pct.1,0.301
same,Ldlr A6logFC,0.282
same,Ldlr avg_logFC,0.282
same,Ldlr pct.1,0.432
same,Lgals9 A6logFC,−0.27
same,Lgals9 avg_logFC,−0.27
same,Lgals9 pct.1,0.621
same,Lgmn avg_logFC,0.4846
same,Lgmn pct.1,0.246
same,Lifr avg_logFC,−0.6262
same,Lipc A6logFC,−0.2548
same,Lipc avg_logFC,−0.2548
same,Lipc pct.1,0.401
same,Litaf avg_logFC,0.3944
same,Litaf pct.1,0.451
same,Lmo4 avg_logFC,0.3205
same,Lmo4 pct.1,0.308
same,Lonp2 avg_logFC,−0.4674
same,Lonp2 pct.1,0.561
same,Lpgat1 avg_logFC,0.5952
same,Lpin2 avg_logFC,0.6867
same,Lrg1 avg_logFC,0.4908
same,Lrrc58 avg_logFC,1.001
same,Lrrc59 avg_logFC,0.3772
same,Lrrc59 pct.1,0.422
same,Lrrfip1 avg_logFC,0.4459
same,Lrrfip1 pct.1,0.37
same,Lsmd1 A6logFC,−0.3131
same,Lyst avg_logFC,0.4093
same,Lyst pct.1,0.31
same,Lyz2 avg_logFC,0.7322
same,Maff avg_logFC,0.3553
same,Maff pct.1,0.224
same,Magi3 A6logFC,0.27
same,Magi3 avg_logFC,0.27
same,Magi3 pct.1,0.303
same,Malat1 avg_logFC,0.9206
same,Malat1 pct.1,0.871
same,Man2a1 avg_logFC,0.4971
same,Map2k3 avg_logFC,0.4347
same,Map2k3 pct.1,0.427
same,Map3k2 A6logFC,0.2518
same,Map3k2 avg_logFC,0.2518
same,Map3k2 pct.1,0.265
same,Mapk6 A6logFC,0.2568
same,Mapk6 avg_logFC,0.2568
same,Mapk6 pct.1,0.303
same,Mapkapk2 A6logFC,0.3138
same,Mapkapk2 avg_logFC,0.3138
same,Mapkapk2 pct.1,0.396
same,Mat1a avg_logFC,0.7908
same,Mat2a avg_logFC,0.4826
same,Mat2a pct.1,0.487
same,Mbl1 avg_logFC,−0.713
same,Mbnl1 avg_logFC,0.4513
same,Mbnl1 pct.1,0.492
same,Mcee A6logFC,−0.3199
same,Mcl1 avg_logFC,0.5709
same,Mcl1 pct.1,0.573
same,Mcm10 avg_logFC,−0.4874
same,Mdn1 avg_logFC,0.318
same,Mdn1 pct.1,0.251

# Source: patent US20230053540A1, “TREATMENT OF LIVER INJURY” (Massachusetts Institute of Technology, priority 2019, published 2023)
